Measurements as given in patent US10179771B2 (GALAPAGOS NV, priority 2014, dated 2019).

Experiments:
[1] = biological target: T1, Recombinant human JAK2 catalytic domain (Homo sapiens, UniProt O60674); experiment: JAK2 inhibition assay (polyGT substrate / Ulight-JAK1 peptide assay); format: biochemical
T1 construct: Recombinant human JAK2 catalytic domain (amino acids 808-1132; catalog number PV4210); GST; purchased Invitrogen PV4210
Method: Recombinant human JAK2 catalytic domain (amino acids 808-1132; catalog number PV4210) was purchased from Invitrogen. 0.025 mU of JAK2 is incubated with […] polyGT substrate (Sigma catalog number P0275) in kinase reaction buffer (5 mM MOPS pH 7.5, 9 mM MgAc, 0.3 mM EDTA, 0.06% Brij and 0.6 mM DTT, 1 μM non-radioactive ATP, 0.25 μCi ^33P-gamma-ATP (GE Healthcare, catalog number AH9968) final concentrations) with or without 5 μL containing test compound or vehicle (DMSO, 1% final concentration), in a total volume of 25 μL, in a polypropylene 96-well plate (Greiner, V-bottom). After 90 min at 30° C., reactions are stopped by adding of 25 μL/well of 150 mM phosphoric acid. All of the terminated kinase reaction is transferred to prewashed (75 mM phosphoric acid) 96 well filter plates (Perkin Elmer catalog number 6005177) using a cell harvester (Perkin Elmer). Plates are washed 6 times with 300 μL per well of a 75 mM phosphoric acid solution and the bottom of the plates is sealed. 40 μL/well of Microscint-20 is added, the top of the plates is sealed and readout is performed using the Topcount (Perkin Elmer). Kinase activity is calculated by subtracting counts per min (cpm) obtained in the presence of a positive control inhibitor (10 μM staurosporine) from cpm obtained in the presence of vehicle. The ability of a test compound to inhibit this activity is determined as:
(§1) [formula] • RFU test compound=RFU determined for sample with test compound present • RFU control=RFU determined for sample with positive control inhibitor • RFU vehicle=RFU determined in the presence of vehicle
Dose dilution series are prepared for the compounds enabling the testing of dose-response effects in the JAK2 assay and the calculation of the IC50 for each compound. Each compound is routinely tested at concentration of 20 μM followed by a 1/3 serial dilution, 8 points (20 μM-6.67 μM-2.22 μM-740 nM-247 nM-82 nM-27 nM-9 nM) in a final concentration of 1% DMSO. When potency of compound series increased, more dilutions are prepared and/or the top concentration is lowered (e.g. 5 μM, 1 μM).
Recombinant human JAK2 (catalytic domain, amino acids 866-1154; catalog number PV4210) was purchased from Invitrogen. 0.0125 mU of JAK2 was incubated with 25 nM Ulight-JAK1 (tyr1023) peptide (Perkin Elmer catalog number TRF0121) in kinase reaction buffer (25 mM HEPES pH7.0, 0.01% Triton X-100, 7.5 mM MgCl2, 2 mM DTT, 7.5 μM ATP) with or without 4 μL containing test compound or vehicle (DMSO, 1% final concentration), in a total volume of 20 μL, in a white 384 Opti plate (Perkin Elmer, catalog number 6007290). After 60 min at room temperature, reactions were stopped by adding 20 μL/well of detection mixture (1× detection buffer (Perkin Elmer, catalog number CR97-100C), 0.5 nM Europium-anti-phosphotyrosine (PT66) (Perkin Elmer, catalog number AD0068), 10 mM EDTA). Readout is performed using the Envision with excitation at 320 nm and measuring emission at 615 nm (Perkin Elmer). Kinase activity was calculated by subtracting relative fluorescence units (RFU) obtained in the presence of a positive control inhibitor (10 μM staurosporine) from RFU obtained in the presence of vehicle. The ability of a test compound to inhibit this activity was determined as: Percentage inhibition=((RFU determined for sample with test compound present−RFU determined for sample with positive control inhibitor) divided by (RFU determined in the presence of vehicle−RFU determined for sample with positive control inhibitor))*100.
Dose dilution series are prepared for compound enabling the testing of dose-response effects in the JAK2 assay and the calculation of the IC50 for the compound. Each compound is routinely tested at concentration of 20 μM followed by a 1/5 serial dilution, 10 points in a final concentration of 1% DMSO. When potency of compound series increases, more dilutions are prepared and/or the top concentration are lowered (e.g. 5 μM, 1 μM). […]

[2] = biological target: T2, Recombinant human JAK3 catalytic domain (Homo sapiens, UniProt P52333); experiment: JAK3 inhibition assay; format: biochemical
T2 construct: Recombinant human JAK3 catalytic domain (amino acids 781-1124; catalog number PV3855); purchased Invitrogen PV3855
Method: Recombinant human JAK3 catalytic domain (amino acids 781-1124; catalog number PV3855) was purchased from Invitrogen. 0.5 ng JAK3 protein was incubated with 2.5 μg polyGT substrate (Sigma catalog number P0275) in kinase reaction buffer (25 mM Tris pH 7.5, 0.5 mM EGTA, 10 mM MgCl2, 2.5 mM DTT, 0.5 mM Na3VO4, 5 mM b-glycerolphosphate, 0.01% Triton X-100, 1 μM non-radioactive ATP, […] ^33P-gamma-ATP (GE Healthcare, catalog number AH9968) final concentrations) with or without 5 μL containing test compound or vehicle (DMSO, 1% final concentration), in a total volume of 25 μL, in a polypropylene 96-well plate (Greiner, V-bottom). After 45 min at 30° C., reactions were stopped by adding 25 μL/well of 150 mM phosphoric acid. All of the terminated kinase reaction was transferred to prewashed (75 mM phosphoric acid) 96 well filter plates (Perkin Elmer catalog number 6005177) using a cell harvester (Perkin Elmer). Plates were washed 6 times with 300 μL per well of a 75 mM phosphoric acid solution and the bottom of the plates was sealed. 40 μL/well of Microscint-20 was added, the top of the plates was sealed and readout was performed using the Topcount (Perkin Elmer). Kinase activity was calculated by subtracting counts per min (cpm) obtained in the presence of a positive control inhibitor (10 μM staurosporine) from cpm obtained in the presence of vehicle. The ability of a test compound to inhibit this activity was determined as:
as §1
Dose dilution series were prepared for the compounds enabling the testing of dose-response effects in the JAK3 assay and the calculation of the IC50 for each compound. Each compound was routinely tested at concentration of 20 μM followed by a 1/5 serial dilution, 10 points in a final concentration of 1% DMSO. When potency of compound series increased, more dilutions were prepared and/or the top concentration was lowered (e.g. 5 μM, 1 μM).

[3] = Illustrative Compounds of the invention (Table VII)
[4] = Illustrative Compounds of the invention (Table IX)
[5] = Comparative Compounds (Table VIII)
[6] = Comparative Compounds (Table X)

T1 sequence (O60674 808-1132): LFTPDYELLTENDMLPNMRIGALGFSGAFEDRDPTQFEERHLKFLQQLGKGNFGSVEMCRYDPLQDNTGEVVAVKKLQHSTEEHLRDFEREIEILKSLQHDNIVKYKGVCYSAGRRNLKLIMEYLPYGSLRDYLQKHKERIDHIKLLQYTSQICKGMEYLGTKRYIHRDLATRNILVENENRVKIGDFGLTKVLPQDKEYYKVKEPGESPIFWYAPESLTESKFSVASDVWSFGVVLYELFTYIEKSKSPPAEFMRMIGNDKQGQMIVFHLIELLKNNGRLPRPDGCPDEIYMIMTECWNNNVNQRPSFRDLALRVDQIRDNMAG
T2 sequence (P52333 781-1124): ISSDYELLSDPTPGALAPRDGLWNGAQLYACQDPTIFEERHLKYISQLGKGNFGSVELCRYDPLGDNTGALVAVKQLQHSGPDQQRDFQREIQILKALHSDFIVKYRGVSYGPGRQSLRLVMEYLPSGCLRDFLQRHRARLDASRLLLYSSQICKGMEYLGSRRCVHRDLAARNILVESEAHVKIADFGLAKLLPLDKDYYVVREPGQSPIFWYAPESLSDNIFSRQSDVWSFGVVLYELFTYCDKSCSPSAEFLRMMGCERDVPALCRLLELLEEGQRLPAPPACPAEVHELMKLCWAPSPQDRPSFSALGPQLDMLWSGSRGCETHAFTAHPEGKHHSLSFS

IC50 [1, 3] | IC50 [2, 4] | IC50 [1, 5] | IC50 [2, 6] | SMILES
100 to 500 nM | > 500 nM |  |  | CCc1cc(S(C)(=O)=O)ncc1Oc1cc(NC(=O)C2CC2)c2ncn(C)c2c1 [Cpd 29, N-[6-[(4-ethyl-6-methylsulfonyl-3-pyridyl)oxy]-1-methyl-benzimidazol-4-yl]cyclopropanecarboxamide]
 |  | > 500 nM | > 500 nM | CN(c1cc2c(cn1)ncn2C)c1ccc(C#N)cc1F [D, reference compound]
> 500 nM | > 500 nM |  |  | Cc1cc(C#N)ncc1Oc1cc(NC(=O)N2CCOCC2)c2ncn(C)c2c1 [Cpd 37, N-[6-[(6-cyano-4-methyl-3-pyridyl)oxy]-1-methyl-benzimidazol-4-yl]morpholine-4-carboxamide]
50 to 100 nM | > 500 nM |  |  | Cc1cc(C#N)ncc1Oc1cc(NC(=O)C2CC2)c2ncn(C)c2c1 [Cpd 23, N-[6-[(6-cyano-4-methyl-3-pyridyl)oxy]-1-methyl-benzimidazol-4-yl]cyclopropanecarboxamide]
0.1 to 50 nM | 0.1 to 50 nM |  |  | CCc1cc(C#N)cc(F)c1N(C)c1cc(NC(=O)C2CC2)c2ncn(C)c2c1 [Cpd 3, N-(6-((4-cyano-2-ethyl-6-fluorophenyl)(methyl)amino)-1-methyl-1H-benzo[d]imidazol-4-yl)cyclopropanecarboxamide]
> 500 nM | > 500 nM |  |  | CN(c1cc(NC(=O)[C@H]2C[C@H]2F)c2ncn(C)c2c1)c1ccc(S(C)(=O)=O)cc1F [Cpd 17, (1R,2R)-2-fluoro-N-[6-(2-fluoro-N-methyl-4-methylsulfonyl-anilino)-1-methyl-benzimidazol-4-yl]cyclopropanecarboxamide]
50 to 100 nM | 100 to 500 nM |  |  | Cc1cc(F)ncc1N(C)c1cc(NC(=O)[C@H]2C[C@H]2F)c2ncn(C)c2c1 [Cpd 12, (1R,2R)-2-fluoro-N-[6-[(6-fluoro-4-methyl-3-pyridyl)-methyl-amino]-1-methyl-benzimidazol-4-yl]cyclopropanecarboxamide]
0.1 to 50 nM | 0.1 to 50 nM |  |  | CCc1cc(C#N)cc(F)c1N(C)c1cc(NC(=O)[C@@H]2C[C@@H]2F)c2ncn(C)c2c1 (racemic) [Cpd 7, N-(6-((4-cyano-2-ethyl-6-fluorophenyl)(methyl)amino)-1-methyl-1H-benzo[d]imidazol-4-yl)-2-fluorocyclopropanecarboxamide (1S,2S)/(1R,2R) racemic mixture]
0.1 to 50 nM | 50 to 100 nM |  |  | CCc1cc(C#N)cc(F)c1N(C)c1cc(NC(=O)OC)c2ncn(C)c2c1 [Cpd 5, methyl 6-((4-cyano-2-ethyl-6-fluorophenyl)(methyl)amino)-1-methyl-1H-benzo[d]imidazol-4-ylcarbamate]
0.1 to 50 nM | 50 to 100 nM |  |  | Cc1cc(C#N)nc(F)c1N(C)c1cc(NC(=O)[C@H]2C[C@H]2F)c2ncn(C)c2c1 [Cpd 21, (1R,2R)-N-[6-[(6-cyano-2-fluoro-4-methyl-3-pyridyl)-methyl-amino]-1-methyl-benzimidazol-4-yl]-2-fluoro-cyclopropanecarboxamide]
0.1 to 50 nM | 100 to 500 nM |  |  | CNC(=O)Nc1cc(Oc2cnc(C#N)cc2C)cc2c1ncn2C
0.1 to 50 nM | 50 to 100 nM |  |  | Cc1cc(S(C)(=O)=O)cc(F)c1N(C)c1cc(NC(=O)C2CC2)c2ncn(C)c2c1 [Cpd 19, N-[6-(2-fluoro-N,6-dimethyl-4-methylsulfonyl-anilino)-1-methyl-benzimidazol-4-yl]cyclopropanecarboxamide]
0.1 to 50 nM | > 500 nM |  |  | CCc1cc(C#N)ncc1Oc1cc(NC(=O)[C@H]2C[C@H]2F)c2ncn(C)c2c1 [Cpd 6, (1R,2R)-N-[6-[(6-cyano-4-ethyl-3-pyridyl)oxy]-1-methyl-benzimidazol-4-yl]-2-fluoro-cyclopropanecarboxamide]
50 to 100 nM | 100 to 500 nM |  |  | Cc1cc(S(C)(=O)=O)ccc1N(C)c1cc(NC(=O)[C@H]2C[C@H]2F)c2ncn(C)c2c1 [Cpd 26, (1R,2R)-N-[6-(N,2-dimethyl-4-methylsulfonyl-anilino)-1-methyl-benzimidazol-4-yl]-2-fluoro-cyclopropanecarboxamide]
> 500 nM | > 500 nM |  |  | CNc1cc(Oc2cnc(C#N)cc2C)cc2c1ncn2C [Cpd 34, 4-methyl-5-[3-methyl-7-(methylamino)benzimidazol-5-yl]oxy-pyridine-2-carbonitrile]
0.1 to 50 nM | 100 to 500 nM |  |  | CCc1cc(C(N)=O)ncc1N(C)c1cc(NC(=O)[C@H]2C[C@H]2F)c2ncn(C)c2c1 [Cpd 25, 4-ethyl-5-((4-((1R,2R)-2-fluorocyclopropanecarboxamido)-1-methyl-1H-benzo[d]imidazol-6-yl)(methyl)amino)picolinamide]
0.1 to 50 nM | 100 to 500 nM |  |  | CCc1cc(C#N)ncc1N(C)c1cc(NC(=O)[C@H]2C[C@H]2F)c2ncn(C)c2c1 [Cpd 8, (1R,2R)-N-(6-((6-cyano-4-ethylpyridin-3-yl)(methyl)amino)-1-methyl-1H-benzo[d]imidazol-4-yl)-2-fluorocyclopropanecarboxamide]
 |  | > 500 nM | > 500 nM | CN(c1ccc2ncn(C)c2c1)c1ccc(C#N)cc1F [C, 3-fluoro-4-[methyl-(3-methylbenzimidazol-5-yl)amino]benzonitrile, reference compound]
0.1 to 50 nM | 100 to 500 nM |  |  | CCc1cc(S(C)(=O)=O)ncc1N(C)c1cc(NC(=O)C2CC2)c2ncn(C)c2c1 [Cpd 18, N-[6-[(4-ethyl-6-methylsulfonyl-3-pyridyl)-methyl-amino]-1-methyl-benzimidazol-4-yl]cyclopropanecarboxamide]
50 to 100 nM | 100 to 500 nM |  |  | CN(c1cc(NC(=O)[C@H]2C[C@H]2F)c2ncn(C)c2c1)c1ccc(C#N)nc1F [Cpd 14, (1R,2R)-N-[6-[(6-cyano-2-fluoro-3-pyridyl)-methyl-amino]-1-methyl-benzimidazol-4-yl]-2-fluoro-cyclopropanecarboxamide]
